The target in series [1] is Recombinant human inducible NOS (iNOS) (Homo sapiens, UniProt P35228). Description: Human iNOS assay, radiometric. Type of series: biochemical. The conditions noted are these: Table 10, human iNOS; read-out: iNOSh. As for the experimental part: Recombinant human inducible NOS (iNOS) was produced in Baculovirus-infected Sf9 cells (ALEXIS). […] 15 μL of test substances are added to the mixture with the specific enzyme and pre-incubated at RT for 15 min. • 2. […] The incubation is carried out at 37° C. for 45 min. • 4. […] An aliquot 70 μL of the supernatant is added to 100 μL scintillation fluid. • 8.
The total volume of the reaction mixture is 150 μL in every well. All assays are performed at least in duplicate. Standard deviations are 10% or less.

In the next series the target is 5-HT1D (Bos taurus, UniProt F1MMU1). Description: 5-HT1D binding assay (agonist radioligand), bovine caudate membranes. The conditions noted are these: Table 11, bovine 1D receptor binding; read-out: 5HT1D. As for the experimental part:
5-HT1D binding assays (agonist radioligand) were performed using bovine caudate membranes according to the methods of Heuring and Peroutka (J. Neurosci., 7: 894-903 (1987)). 5-HT1B (rat cerebral cortex) binding assays (agonist radioligand) were performed according to the method of Hoyer et. al. (Eur. J. Pharmacol., 118: 1-12 (1995)). For the purpose of result analysis, the specific ligand binding to the receptors is defined as the difference between the total binding and the nonspecific binding as determined in the presence of an excess of unlabelled ligand. The results are expressed as a percent of control specific binding obtained in the presence of the test compounds.

A short description of series [2]: Human liver microsome in vitro metabolic stability assay. The conditions noted are these: for Peak Area Ratio 0 min / Peak Area Ratio 15 min / Peak Area Ratio 30 min / Peak Area Ratio 60 min: human liver microsomes. The format is in vitro ADME. The protocol:
The compounds (10 μM) were incubated with pooled human liver microsomes in the presence and absence of the co-factor, β-Nicotinamide adenine dinucleotide phosphate (NADP^+), required for oxidative metabolism by the Cytochrome P-450 (CYP) and flavin containing monooxygenase (FMO) enzymes. A tandem liquid chromatography mass spectrometry (LC-MS/MS) method was developed and/or qualified for each compound for measuring relative stability of 6a, 6b, and 18 in the terminated reaction mixtures. The relative disappearance of the test compounds following 15, 30, and 60 min of incubation with liver microsomes, NADP^+, and an NADPH-regenerating system was determined in duplicate samples. 6a, 6b, and 18 stability following 0 and 60 min of incubation with liver microsomes in the absence of NADP^+ was also determined.
Samples for each test compound generated from the assay were analyzed as one batch by the qualified LC-MS/MS method. The sample batch consisted of the following: initial system check standards (three replicates), the assay samples (in duplicate) and the final system check standards (three replicates). A batch was considered acceptable if the system check injection acceptance criteria described above was met.
The study was conducted with cryopreserved human liver microsomes, pooled from 15 donors (mixed pool of male and female donors). Pooled donor microsomes were used in order to represent an “average” metabolic activity. The microsomes have been characterized by the supplier for Phase I (CYP1A2, CYP2A6, CYP2B6, CYP2C8, CYP2C9, CYP2C19, CYP2D6, CYP2E1, CYP3A4, CYP4A11 and FMO) and Phase II (UGT1A1, UGT1A4 and UGT1A9) enzymatic activity.
1. The assay was performed with 0.5 mg/mL human liver microsomes in 50 mM potassium phosphate buffer, pH 7.4 (PPB), and in the presence of an NADPH regenerating system (1.3 mM NADP^+, 3.3 mM glucose-6-phosphate, 0.4 U/mL glucose-6-phosphate dehydrogenase) and 3.3 mM MgCl2. All incubations were performed in duplicate. One concentration of test compound was tested (10 μM). 2. A stock solution of microsomes (20 mg/mL) was thawed in a 37° C. water bath on the day of the assay and then immediately placed on ice. The microsomes were then diluted with an appropriate volume of PPB, such that the final protein concentration in the assay was 0.5 mg/mL, and the final PPB concentration was 50 mM. 3. An appropriate aliquot of the 1 mM stock solution of the test compounds (in water) was added to the diluted microsomes, and then the mixture was warmed to 37° C. for 5 min in an incubator. […] These samples represent the time zero samples. 4. An aliquot (375 μL) of the pre-warmed liver microsomes and test compound mixture was dispensed into a well of a 24-well plate. A 125 μL aliquot of pre-warmed (37° C. for 5 min) 4-fold concentrated NADPH regenerating system solution was then added to start the reaction. Reaction mixtures (0.5 mL) were incubated in a shaking incubator (150 rpm) at 37° C. 5. One hundred μL of the reaction mixture was sampled following 15, 30, and 60 min of incubation. Each sample with test compound was immediately added to a chilled labeled centrifuge tube containing 100 μL of ice cold methanol to terminate the reaction. 6. All samples were mixed by vortex and then centrifuged (15,000×g for 10 min at 4° C.) to pellet the protein. An aliquot of the supernatant from each sample was then transferred to a clean, labeled centrifuge tube and stored at −70° C. until bioanalysis. 7. […] 8. As a control, test compound was incubated with microsomes in the absence of NADP^+. One hundred μL of the reaction mixture was sampled for control samples following 0 and 60 min of incubation as detailed above. 9. Data sheets with the date of the experiment, the Study No., the compound IDs, the sampling times, a plate map and any deviations to the protocol were recorded.
The mean of the test compound to the internal standard peak area ratios were calculated for the zero time sample.

The subject of series [3] is rats with L5/L6 spinal nerve ligation. The series can be described thus: Chung spinal nerve ligation (SNL) model of neuropathic-like pain. Type of series: in vivo. The conditions noted are these: rat, 30 mg/kg i.p. As for the experimental part:
(a) Chung Model of Injury-induced Neuropathic-like Pain: The experimental designs for the Chung Spinal Nerve Ligation SNL Model assay for neuropathic pain are depicted in the Figure below. Nerve ligation injury was performed according to the method described by Kim and Chung (Kim and Chung, Pain 50:355-363, 1992). This technique produces signs of neuropathic dysesthesias, including tactile allodynia, thermal hyperalgesia, and guarding of the affected paw. Rats were anesthetized with halothane, and the vertebrae over the L4 to S2 region were exposed. The L5 and L6 spinal nerves were exposed, carefully isolated, and tightly ligated with 4-0 silk suture distal to the DRG. After ensuring homeostatic stability, the wounds were sutured, and the animals allowed to recover in individual cages. Sham-operated rats were prepared in an identical fashion except that the L5/L6 spinal nerves were not ligated. […] After a period of recovery following the surgical intervention, rats show enhanced sensitivity to painful and normally non-painful stimuli.

Entries after “also recorded” stand apart in the source; their conditions may differ.

Data on two compounds can be found in US8673909B2, “Indole compounds and methods for treating visceral pain” (NeurAxon, Inc., priority 2007, dated 2014).

Chain of 5-HT1D (F1MMU1 1-377): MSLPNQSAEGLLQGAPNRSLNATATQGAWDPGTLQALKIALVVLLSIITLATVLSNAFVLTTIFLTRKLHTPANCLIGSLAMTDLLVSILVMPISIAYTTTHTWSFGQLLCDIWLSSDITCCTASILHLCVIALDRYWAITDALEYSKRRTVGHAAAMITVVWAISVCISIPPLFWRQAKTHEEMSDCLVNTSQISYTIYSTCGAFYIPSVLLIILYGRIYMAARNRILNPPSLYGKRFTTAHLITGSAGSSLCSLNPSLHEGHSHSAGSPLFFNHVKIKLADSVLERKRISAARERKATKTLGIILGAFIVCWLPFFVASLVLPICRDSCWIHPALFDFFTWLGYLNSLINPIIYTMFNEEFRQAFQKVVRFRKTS

For the compound `CN1CCC(c2c[nH]c3ccc(NC(=N)c4cccs4)cc23)C1` (single isomer, unassigned) [Compound 6a, N-(3-(1-Methylpyrrolidin-3-yl)-1H-indol-5-yl)thiophene-2-carboximidamide], the IC50 in series [1] was 25 µM. For the same compound, the IC50 on 5-HT1D came out at 0.17 µM. Also, in series [2] (+NADP+, 10 μM), the “Peak Area Ratio 0 min” value stood at 25.8, the “Peak Area Ratio 15 min” value came to 25.8, the “Peak Area Ratio 30 min” value is given as 23.7 and the “Peak Area Ratio 60 min” value was 19.4. Also, the half-life at 10 μM in series [2] (both sexes, pooled human liver microsomes, pH 7.4, human liver microsomes, with NADPH regenerating system, read-out: estimated half-life for disappearance from the microsomal reaction mixture) was 2.2 h. Also, in series [2] (−NADP+, 10 μM), the “Peak Area Ratio 0 min” value worked out at 22.0 and the “Peak Area Ratio 60 min” value is on record as 20.2. Further, in series [3], the “reversal of tactile hyperthesia” value is reported as “not” and the “reversal of thermal hyperalgesia (antihyperalgesic effect)” value is “only weakly”.

Turning to `CN1CCC(c2c[nH]c3ccc(NC(=N)c4cccs4)cc23)C1` (single isomer, unassigned) [Compound 6b, N-(3-(1-Methylpyrrolidin-3-yl)-1H-indol-5-yl)thiophene-2-carboximidamide], the IC50 in series [1] was 20 µM. At 5-HT1D, the IC50 is 0.079 µM. Moreover, in series [2] (60 min incubation, 10 μM), the “metabolic stability in human liver microsomes” value is recorded as “metabolically stable over 60 min of incubation”. In addition, in series [2] (+NADP+, 10 μM), the “Peak Area Ratio 0 min” value is on record as 20.6, the “Peak Area Ratio 15 min” value is given as 20.5, the “Peak Area Ratio 30 min” value was 21.4 and the “Peak Area Ratio 60 min” value was found to be 20.5. For the same compound, in series [2] (−NADP+, 10 μM), the “Peak Area Ratio 0 min” value was found to be 20.2 and the “Peak Area Ratio 60 min” value was determined as 20.6. For the same compound, in series [3], the “reversal of tactile hyperthesia” value is given as “reversal of tactile hyperthesia” and the “reversal of thermal hyperalgesia (antihyperalgesic effect)” value is listed as “reversal of thermal hyperalgesia; also recorded: clear antihyperalgesic effect”.

As a reminder, the half-life is the time in which the quantity being followed falls by half.
